Results: patent EP0646315B1, “Novel compositions containing an auxin transport inhibitor and another herbicide” (Novartis AG, priority 1993, dated 1995)

How the values were obtained:
[1] = test system: pigweed; assay: Field trial, post-emergent tank mix in field corn; assay type: in vivo, Amaranthus sp.; conditions: post-emergent 35 days after seeding, weeds 41 to 89 cm, foliar broadcast tank mix, (z) 0.275 kg/ha, (a) 0.011 kg/ha, Aquagene 0.9 l/ha where named
Protocol: (§1) A field trial was conducted against velvetleaf and pigweed in field corn. Application was post-emergent 35 days after seeding with weeds at a height of 41 to 89 cm. Application was of tank mixed formulation by foliar applied broadcast treatment. Compound (a) above was tank mixed as is. Compound (z) above was tank mixed in the form of a 0.5 kg/l s.c. commercially available under the trademark […]®. Aquagene is a commercially available surfactant, (Universal Coop Incorporated, Minneapolis, MN).

[2] = test system: velvetleaf; assay: Field trial, post-emergent tank mix in field corn; assay type: in vivo, Abutilon theophrasti; conditions: post-emergent 35 days after seeding, weeds 41 to 89 cm, foliar broadcast tank mix, (z) 0.275 kg/ha, (a) 0.011 kg/ha, Aquagene 0.9 l/ha where named
Protocol: as §1

[3] = test system: cocklebur; assay: Greenhouse test, post-emergence; assay type: in vivo, Xanthium strumarium; conditions: treatment 10 days post-emergence, evaluation 18 days after treatment, (e) 0.01 kg/ha, (z) 0.02 kg/ha, 3 repetitions
Protocol: (§2) A greenhouse test was conducted against velvetleaf, pigweed, morningglory and cocklebur. Treatment was at 10 days post-emergence and evaluation at 18 days after treatment. Compound (e) was formulated as technical a.i. in a mixture of equal parts acetone and water with 1/2% surfactant. Compound (z) was used in the commercially available form […]® herbicide (=480g/L a.i. equivalent) in water with 1/2% surfactant. The tank mixes were applied in a linear spray chamber with 3 repetitions per concentration.

[4] = test system: morningglory; assay: Greenhouse test, post-emergence; assay type: in vivo, Ipomoea sp.; conditions: treatment 10 days post-emergence, evaluation 18 days after treatment, (e) 0.01 kg/ha, (z) 0.02 kg/ha, 3 repetitions
Protocol: as §2

[5] = test system: pigweed; assay: Greenhouse test, post-emergence; assay type: in vivo, Amaranthus sp.; conditions: treatment 10 days post-emergence, evaluation 18 days after treatment, (e) 0.01 kg/ha, (z) 0.02 kg/ha, 3 repetitions
Protocol: as §2

[6] = test system: velvetleaf; assay: Greenhouse test, post-emergence; assay type: in vivo, Abutilon theophrasti; conditions: treatment 10 days post-emergence, evaluation 18 days after treatment, (e) 0.01 kg/ha, (z) 0.02 kg/ha, 3 repetitions
Protocol: as §2

Row | Compound | % of control Pigweed [1] [%] | % of control Velvetleaf [2] [%] | activity at 275 g/ha ([1]; Amaranthus retroflexus, 840 h, read-out: % of control Pigweed) [%] | activity at 275 g/ha ([2]; Abutilon theophrasti, 840 h, read-out: % of control Velvetleaf) [%] | % control Cocklebur [3] [%] | % control Morningglory [4] [%] | % control Pigweed [5] [%] | % control Velvetleaf [6] [%]
1 | 2-acetylnicotinic acid 4-(3,5-difluorophenyl)semicarbazone 2-(2-hydroxyethoxy)ethyl-ammonium salt [Compound (a)] | 18 | 13 | – | – | – | – | – | –
2 | COc1c(Cl)ccc(Cl)c1C(=O)O [Compound (z), dicamba] | – | – | 30 | 18 | 75 | 35 | 35 | 35
